Values quoted from earlier work in patent US9895328B2, “Calcium formate as a supplement to prevent neural tube defects” (BOARD OF REGENTS, THE UNIVERSITY OF TEXAS SYSTEM, priority 2013, dated 2018).

Assays:
Folr1^−/− embryos = conditions: maternal supplementation, dose dependent ("tunable"); cited from earlier work
Amt null embryos = conditions: maternal supplementation; cited from earlier work
[1] = system: neural tube defects (NTDs); conditions: periconceptional intake of supplemental folic acid, some populations; cited from earlier work

Row | Compound | rescue of Folr1 knockout embryonic folate deficiency (Folr1^−/− embryos) | neurulation in Amt null embryos (Amt null embryos) | reduction of the incidence of NTDs [1]
1 | Nc1nc(=O)c2c([nH]1)NCC(CNc1ccc(C(=O)N[C@@H](CCC(=O)O)C(=O)O)cc1)N2C=O (mixture of isomers) [5-formyl-THF] | can be rescued |  | 
2 | CSCC[C@H](N)C(=O)O [methionine] |  | significantly improves neurulation | 
3 | Nc1nc2ncc(CNc3ccc(C(=O)NC(CCC(=O)O)C(=O)O)cc3)nc2c(=O)[nH]1 (stereo in doubt) [folic acid, pteroyl-L-glutamic acid] |  | no effect | ≤ 70%
